Experimental data from the NIST ThermoML archive (doi:10.1016/j.jct.2012.09.003).

Key:
[1] = cn = amount concentration of the nth substance listed, in mol/dm3; conditions: 298.15 K, 101 kPa, Liquid; for viscosity: Capillary tube (Ostwald / Ubbelohde) method; for speed of sound: Linear variable-path acoustic interferometer; for mass density: Vibrating tube method
[2] = 298.15 K, 101.33 kPa, Liquid; for viscosity: Capillary tube (Ostwald / Ubbelohde) method; for speed of sound: Linear variable-path acoustic interferometer; for mass density: Vibrating tube method

CCCC[P+](CCCC)(CCCC)CCCC.F[B-](F)(F)F [tetrabutylphosphonium tetrafluoroborate] + CC(=O)N(C)C
[1]
Conditions	mass density [kg/m3]	speed of sound [m/s]	viscosity [mPa·s]
c1 = 0.0053	937.22	1461.8	0.93
c1 = 0.0215	938.69	1473.5	0.949
c1 = 0.0377	940.34	1486.9	0.968
c1 = 0.0541	942.13	1501.6	0.987
c1 = 0.0705	944.01	1517.8	1.007
c1 = 0.0871	945.94	1536.3	1.028

CCCC[P+](CCCC)(CCCC)CCCC.F[B-](F)(F)F [tetrabutylphosphonium tetrafluoroborate] + CN(C)C=O
[1]
Conditions	mass density [kg/m3]	speed of sound [m/s]	viscosity [mPa·s]
c1 = 0.0053	944.98	1455.6	0.802
c1 = 0.0213	946.61	1468.7	0.82
c1 = 0.0374	948.4	1483.2	0.837
c1 = 0.0536	950.34	1498.6	0.854
c1 = 0.0699	952.4	1515.4	0.871
c1 = 0.0729	–	–	0.889
c1 = 0.0863	954.5	1533.8	–

CN(C)C=O [dimethylformamide]
[2]
Conditions	mass density [kg/m3]	speed of sound [m/s]	viscosity [mPa·s]
–	944.5	1451.7	0.794

CCCC[P+](CCCC)(CCCC)CCCC.F[B-](F)(F)F [tetrabutylphosphonium tetrafluoroborate] + C[S+](C)[O-]
[1]
Conditions	mass density [kg/m3]	speed of sound [m/s]	viscosity [mPa·s]
c1 = 0.0046	1096.05	1492.7	1.952
c1 = 0.0184	1096.4	1501.5	1.982
c1 = 0.0323	1097.02	1513.7	2.015
c1 = 0.0463	1097.84	1527.9	2.049
c1 = 0.0604	1098.83	1544.5	2.085
c1 = 0.0746	1099.98	1564.6	2.12

C[S+](C)[O-] [dimethyl sulfoxide]
[2]
Conditions	mass density [kg/m3]	speed of sound [m/s]	viscosity [mPa·s]
–	1096.02	1490.8	1.946

CC(=O)N(C)C [N,N-dimethylethanamide]
[2]
Conditions	mass density [kg/m3]	speed of sound [m/s]	viscosity [mPa·s]
–	936.8	1458.5	0.923
